This note sets out measurements from US9861642B2, “Methods for diagnosing and treating asthma” (The Children's Research Institute, priority 2010, dated 2018).

What all share (format): cell-based
The test system of assay [1] is normal primary differentiated human airway epithelia. Kind of assay: Mechanical scrape-wound healing (wound area, ImageJ), normal epithelia. The note with it: 20 nM 2 h pulses every 24 h. How it is done: (§1) On arrival, the in vitro epithelia were washed with phosphate buffered saline (PBS) and the basal medium was replaced with proprietary defined medium supplied by the manufacturer. Cells were equilibrated at 37° C. and 5% CO2 for 16 h followed by medium replacement with identical proprietary medium lacking glucocorticoids and epidermal growth factor (EGF). This condition was maintained for an additional 22 h. Upon completion (i.e. −26 h on the experimental timeline shown in FIG. 1, intermittent glucocorticoid exposures began: Dexamethasone (DEX) (20 nM) or PBS vehicle (VEH) was added to the apical and basolateral epithelial surfaces for 2 h. At −24 h, the medium was replaced with glucocorticoid- and EGF-free medium. This two-hour DEX/VEH pulse was repeated every 24 h (i.e. at −2, +22, and +46 h) thereafter until cell harvest at +48 h.
(§2) An in vitro epithelial injury model that allows for the study of epithelial repair processes in the lung was adapted for use in this study. […] In some experiments, wounds were imaged daily (i.e. 0, +24, +48 h) using a 16× phase contrast objective lens and wound area was measured in triplicate by a single operator blinded to the culture conditions using ImageJ Software (Rasband. ImageJ. Bethesda, Md., USA: U. S. National Institutes of Health; 1997-2009). […]

Assay [2] shares this test system. Kind of assay: Flow cytometric cell cycle analysis (7-AAD) of BrdU+ cells from wounded normal epithelia. As to conditions: with pulse DEX, +48 h. Here is the method:
(§3) On arrival, the in vitro epithelia were washed with phosphate buffered saline (PBS) and the basal medium was replaced with proprietary defined medium supplied by the manufacturer. Cells were equilibrated at 37° C. and 5% CO2 for 16 h followed by medium replacement with identical proprietary medium lacking glucocorticoids and epidermal growth factor (EGF). This condition was maintained for an additional 22 h. […]
as §2
Epithelia were washed once with PBS and harvested at +48 h (FIG. 1) for analysis by flow cytometry. […] Data were analyzed by means of the cell cycle analysis feature of FlowJo 7.6 (Tree Star, Inc., Ashland, Oreg.) using a Watson (Pragmatic) model with equal coefficients of variation for the G1/G0 and G2/M peaks
On the technique in general: Flow cytometry measures light scatter and fluorescence of single cells or particles in a stream.

Assay [3] has as its system asthmatic primary differentiated human airway (bronchial) epithelia. Briefly: BrdU flow cytometry of mitotically active cells after scrape-wounding, asthmatic epithelia. The note with it: wounded asthmatic epithelia, 20 nM 2 h pulses every 24 h, harvest +48 h, mean±SEM.
Source text: Normal (n=3) and asthmatic (n=6) primary differentiated human airway (i.e. bronchial) epithelia grown in 12-well plates on collagen-coated Transwell membrane inserts at an air-liquid interface were obtained commercially (#AIR-606 and #AIR-606-Asthma; MatTek Corporation, Ashland, Mass.). Donors underwent bronchoscopic brushing to acquire epithelial cells. Descriptive donor information provided by MatTek Corporation for the individuals from whom cells were obtained is shown in Table 1.
as §3, §2

Assay [4] relates to asthmatic primary differentiated human airway epithelia. Kind of assay: Mechanical scrape-wound healing (wound area, ImageJ), asthmatic epithelia. The note with it: 20 nM 2 h pulses every 24 h. Here is the method: as §1, §2
The test system is the same in assay [5]. Briefly: Flow cytometric cell cycle analysis (7-AAD) of BrdU+ cells from wounded asthmatic epithelia. As to conditions: Example 2, wounded asthmatic epithelia, 2 h pulses at -26, -2, +22, +46 h. How it is done:
as §1
An in vitro epithelial injury model that allows for the study of epithelial repair processes in the lung was adapted for use in this study. Briefly, at 0 h on the timeline in FIG. 1, epithelia were scraped in two perpendicular lines with a p1000 pipette tip and placed in bromodeoxyuridine (BrdU)-containing (10 μM) medium. BrdU-containing medium was changed at +24 h following the DEX/VEH pulse mentioned previously. Epithelia were incubated at 37° C. and 5% CO2 until +48 h. In some experiments, wounds were imaged daily (i.e. 0, +24, +48 h) using a 16× phase contrast objective lens and wound area was measured in triplicate by a single operator blinded to the culture conditions using ImageJ Software (Rasband. ImageJ. Bethesda, Md., USA: U. S. National Institutes of Health; 1997-2009). Contrast was enhanced equally in all images to improve wound visualization.
Epithelia were washed once with PBS and harvested at +48 h (FIG. 1) for analysis by flow cytometry. A single cell suspension was achieved by exposure for 5 minutes with trypsin-ethylenediaminetetraacetic acid (EDTA) solution (#T3924; Sigma-Aldrich, St. Louis, Mo.) followed by filtration through a 40 μm strainer. Cells were simultaneously labeled with the following according to the manufacturers' protocols: 1) Carboxyfluorescein FLICA Apoptosis Poly-Caspase Detection Kit (Immunochemistry Technologies, LLC, Bloomington, Minn.) and 2) APC BrdU Flow Kit containing 7-AAD (amino-actinomycin-D) (BD Biosciences, San Jose, Calif.). Flow cytometry data were generated on a FACSCalibur™ System (BD Biosciences). Samples were gated to study 7-AAD content in BrdU^+FLICA^− cells. Data were analyzed by means of the cell cycle analysis feature of FlowJo 7.6 (Tree Star, Inc., Ashland, Oreg.) using a Watson (Pragmatic) model with equal coefficients of variation for the G1/G0 and G2/M peaks
Human fully-differentiated (air-liquid interface) normal (n=3) and asthmatic (n=3) primary airway epithelia, lacking inflammatory cells, were cultured in glucocorticoid-free medium beginning at −48 h. The cells were pulsed with mitotic cell cycle synchrony-inducing (i.e. dexamethasone, simvastatin) compounds or vehicle for 2 h at −26, −2, +22, and +46 h. Cultures were mechanically scrape-wounded at 0 h and thereafter exposed continuously to bromodeoxyuridine (BrdU) to identify mitotically active cells.

With `C[C@@H]1C[C@H]2[C@@H]3CCC4=CC(=O)C=C[C@]4(C)[C@@]3(F)[C@@H](O)C[C@]2(C)[C@@]1(O)C(=O)CO` [DEX, Dexamethasone], in assay [1], the “wound area decrease from 0 to +48 h” value is 86.8±5.4%. Moreover, the “BrdU+ cells in G1/G0” value in assay [2] is > 70%. Also, in assay [3], the “BrdU+ cells, % of total cells” value was determined as 0.55±0.13%. Moreover, in assay [4], the “wound area decrease from 0 to +48 h” value was 75.7±9%. Also, in assay [5], the “BrdU+ cells in G1/G0” value was 72±5%, the “BrdU+ cells in G2/M” value is reported as 20±4% and the “BrdU+ cells in S” value was 8±2%.

With `CCC(C)(C)C(=O)O[C@H]1C[C@@H](C)C=C2C=C[C@H](C)[C@H](CC[C@@H]3C[C@@H](O)CC(=O)O3)[C@H]21` [simvastatin], in assay [5], the “BrdU+ cells in G1/G0” value stood at 75±6%, the “BrdU+ cells in G2/M” value turned out to be 14±3% and the “BrdU+ cells in S” value turned out to be 11±4%.
